ChEMBL document CHEMBL1201862, “PubChem BioAssay data set” (2004)
Active and inactive are the calls of the source.

Key:
Estrogen receptor beta [1] = target: T1, Estrogen receptor beta (Homo sapiens, UniProt Q92731); test: blockers of SRC-3 recruitment to ERβ – biochemical, ELISA, streptavidin-HRP readout, orthogonal assay, confirmation (AID 1060)
Estrogen receptor beta [2] = target: T1, Estrogen receptor beta
Estrogen receptor = target: T2, Estrogen receptor (Homo sapiens, UniProt P03372);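 also: potency for inhibiting coactivator peptide recruitment to the receptor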
T2 sequence (P03372 whole entry): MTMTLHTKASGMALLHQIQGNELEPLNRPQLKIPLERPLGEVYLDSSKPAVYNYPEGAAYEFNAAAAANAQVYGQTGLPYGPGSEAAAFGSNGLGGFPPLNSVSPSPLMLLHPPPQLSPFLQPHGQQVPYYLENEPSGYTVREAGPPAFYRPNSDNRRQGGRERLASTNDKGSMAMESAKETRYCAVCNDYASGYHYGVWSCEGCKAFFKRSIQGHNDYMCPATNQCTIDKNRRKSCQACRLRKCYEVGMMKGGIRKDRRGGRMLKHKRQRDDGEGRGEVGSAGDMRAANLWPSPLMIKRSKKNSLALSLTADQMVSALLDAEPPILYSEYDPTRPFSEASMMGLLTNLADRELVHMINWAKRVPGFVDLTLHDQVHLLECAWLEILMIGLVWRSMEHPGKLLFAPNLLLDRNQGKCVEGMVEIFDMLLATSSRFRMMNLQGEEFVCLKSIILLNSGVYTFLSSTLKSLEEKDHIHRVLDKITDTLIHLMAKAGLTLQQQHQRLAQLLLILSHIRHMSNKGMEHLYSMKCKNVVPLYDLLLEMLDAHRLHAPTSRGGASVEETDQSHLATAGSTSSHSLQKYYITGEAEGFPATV

[3] = target: T3, Alkaline phosphatase, tissue-nonspecific isozyme (Homo sapiens, UniProt P05186)
T3 sequence (P05186 whole entry): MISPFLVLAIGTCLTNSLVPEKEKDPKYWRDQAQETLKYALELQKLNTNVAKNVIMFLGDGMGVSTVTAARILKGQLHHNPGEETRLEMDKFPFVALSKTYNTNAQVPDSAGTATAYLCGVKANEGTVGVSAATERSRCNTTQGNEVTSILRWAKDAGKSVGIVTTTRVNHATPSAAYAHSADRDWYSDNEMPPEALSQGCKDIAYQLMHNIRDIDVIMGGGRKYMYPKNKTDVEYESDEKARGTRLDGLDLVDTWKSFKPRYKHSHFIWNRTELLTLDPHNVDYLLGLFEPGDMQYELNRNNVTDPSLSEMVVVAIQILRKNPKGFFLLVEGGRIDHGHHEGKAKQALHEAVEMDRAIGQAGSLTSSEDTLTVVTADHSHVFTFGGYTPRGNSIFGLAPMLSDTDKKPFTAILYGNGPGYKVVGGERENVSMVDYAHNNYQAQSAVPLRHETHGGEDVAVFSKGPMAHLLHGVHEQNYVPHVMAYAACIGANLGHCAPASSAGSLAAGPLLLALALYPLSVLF

[4] = M. tuberculosis H37Rv growth inhibitors, H37Rv strain (AID 1626); assay type: functional
H9c2 = test: cells; assay type: functional, cell-based; conditions: Rattus norvegicus, H9c2, Myocardium;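 also: confirmatory concentration-response retest of ultra-high-throughput screening hits for modulation of myocardial damage; cell death induced by hydrogen peroxide oxidative stress; compound pretreatment for 60 min then peroxide exposure for 2 h; potency is for protecting the cells against peroxide damage rather than for killing them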
INS1 = test: INS-1E survival protection against cytokine death – cell-based, luminescence, retest, dose response (AID 449756); assay type: functional; conditions: Rattus norvegicus;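 also: cell death triggered by IL-1 beta plus TNF-alpha plus IFN-gamma mixture; protective hits raise ATP signal compared with cytokine alone wells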
Cytochrome P450 2C9 = Cytochrome P450 2C9 (Homo sapiens, UniProt P11712)
[5] = Luminescence Cell-Based Dose Confirmation HTS to Identify Activators of 5'UTR Stem-Loop Driven Alpha-Synuclein mRNA Translation in H4 Neuroglioblastoma Cells. [Related pubchem assays: 1829 (Project Summary), 1814 (Primary HTS)]; assay type: functional
H4 = test: Luminescence Cell-Based Dose Response HTS to Identify Activators of 5'UTR Stem-Loop Driven Prion Protein mRNA Translation in H4 Neuroglioblastoma Cells. [Related pubchem assays: 1829 (Project Summary), 1814 (Primary HTS)]; assay type: functional; conditions: Homo sapiens
[6] = Luminescence Cell-Based Dose Response HTS to Identify Activators of Luciferase Translation or Activity in H4 […] Cells. [Related pubchem assays: 1829 (Project Summary), 1814 (Primary HTS)]; assay type: functional
[7] = target: Dual specificity protein phosphatase 3 (Homo sapiens, UniProt P51452); test: SAR VHR1 Fluorescent Assay for In Vitro dose response studies Set 2. [Related pubchem assays (depositor defined):AID1654, AID1661, AID1878]; assay type: functional
[8] = target: T4, Tyrosine-protein phosphatase non-receptor type 7 (Homo sapiens, UniProt P35236); test: SAR analysis of chemical inhibitors of HePTP using a Fluorescent assay - Set 2. [Related pubchem assays (depositor defined):AID1059, AID1077, AID1661, AID2085, AID521]; assay type: functional
T4 sequence (P35236 whole entry): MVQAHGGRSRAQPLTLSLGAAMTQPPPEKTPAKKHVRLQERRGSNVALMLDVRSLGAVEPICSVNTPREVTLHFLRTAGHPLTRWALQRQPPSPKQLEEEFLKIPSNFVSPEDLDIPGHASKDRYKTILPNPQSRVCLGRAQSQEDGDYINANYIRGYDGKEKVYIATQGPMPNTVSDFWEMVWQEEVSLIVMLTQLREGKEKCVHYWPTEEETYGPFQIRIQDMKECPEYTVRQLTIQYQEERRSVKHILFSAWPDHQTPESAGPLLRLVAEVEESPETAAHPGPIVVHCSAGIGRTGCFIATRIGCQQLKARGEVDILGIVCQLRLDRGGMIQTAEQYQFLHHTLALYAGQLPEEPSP

[9] = target: Alkaline phosphatase, placental type (Homo sapiens, UniProt P05187); test: human placental alkaline phosphatase inhibition – biochemical, luminescence, confirmation (AID 1512); assay type: functional
[10] = HGIII-sPLA2 enzyme inhibition potency – biochemical, QFRET, IC50, dose response (AID 743457);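 also: green fluorescence rise as the enzyme cleaves BODIPY PC-A2 in liposomes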
[11] = target: Luciferin 4-monooxygenase (Photinus pyralis, UniProt P08659); test: Counter Screen for Luciferase-based Assay Positives. [Related pubchem assays: 620, 618, 411 ]
[12] = target: Peroxisome proliferator-activated receptor gamma/Nuclear receptor coactivator 2 (Homo sapiens, UniProt P37231); test: (§1) TR-FRET dose response biochemical High Throughput Screening assay for agonists of the steroid receptor coactivator 2 (SRC-2) recruitment by the peroxisome proliferator-activated receptor gamma (PPAR gamma): non-selective agonists. [Related pubchem assays: 1297, 1032 ]; assay type: functional
HT-1080 = test: HT1080 cell viability loss – fluorescence readout (AID 620); assay type: functional, cell-based; conditions: Homo sapiens
[13] = target: Peroxisome proliferator-activated receptor gamma/Nuclear receptor coactivator 1 (Homo sapiens, UniProt P37231); test: as §1, with “1 (SRC-1)” for “2 (SRC-2)”, “assays (depositor defined):AID1300, AID1808, AID504735, AID631]” for “assays: 1297, 1032 ]”; assay type: protein assay
[14] = target: Peroxisome proliferator-activated receptor gamma/Nuclear receptor coactivator 3 (Homo sapiens, UniProt P37231); test: as §1, with “3 (SRC-3)” for “2 (SRC-2)”, “1301 (Confirmation screen.), 1048 (Primary screen.)]” for “1297, 1032 ]”; assay type: functional
[15] = Luminescence-based dose response cell-based high throughput screening assay for cytotoxic compounds using the IEC-6 intestinal epithelial cell line. [Related pubchem assays: 1858 (Summary AID.), 1825 (Counterscreen.), 1907 (Confirmation screen.)]; assay type: functional
HeLa = test: Cytotoxicity counterscreen assay for transcriptional activators of heat shock protein 70 (Hsp70). [Related pubchem assays: 1203, 1252 ]; assay type: functional; conditions: Homo sapiens;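 also: cells exposed to compound for 16 hours before readout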
[16] = target: Acyl-homoserine lactone acylase PvdQ (Pseudomonas aeruginosa (strain LESB58), UniProt Q9I194); test: PvdQ acylase enzyme activity blockers – biochemical, fluorescence, plate reader and imaging, cherry-picks, dose response (AID 493231)
[17] = blockade of melanocortin 4 receptor signaling – cell-based, plate reader, cherry pick, counter-screen for LGR2 antagonist project, dose response (AID 743444); assay type: functional;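 also: transfected HEK 293 cells stimulated with alpha-MSH peptide; potency of inhibitors of the alpha-MSH evoked signal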
[18] = Luminescence Cell-Based Dose Response HTS to Identify Inhibitors of 5'UTR Stem-Loop Driven Prion Protein mRNA Translation in H4 Neuroglioblastoma Cells. [Related pubchem assays: 1827 (Project Summary), 1813 (Primary HTS)]; assay type: functional
[19] = A549 cell cytotoxicity, dose response, cytotoxicity control, plate reader, cherry-pick, antagonist series (AID 743412); assay type: functional, cell-based
[20] = target: FAD-linked sulfhydryl oxidase ALR (Homo sapiens, UniProt P55789); test: ALR-catalysed DTT oxidation blockers – biochemical, H2O2 detection, luminescence, cherry-pick, dose response (AID 493248)
[21] = alpha-synuclein stem-loop luciferase translation blockers – H4 neuroglioma cells, luminescence, confirmation (AID 1988); assay type: functional, cell-based
[22] = blockers of bursicon-stimulated LGR2 cAMP reporter – cell-based, HEK293, CRE-luciferase reporter, cherry pick, set 2, dose response (AID 743343); assay type: functional;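 also: transfected cells were stimulated with diluted bursicon conditioned medium after compound addition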
[23] = toxicity toward HepG2 liver cells – cell-based, plate reader, cherry-pick, antagonist series, cytotoxicity control, dose response (AID 743416); assay type: functional
HEK293 = test: EBV LMP1 TES2 canonical NF-kB signalling blockers – cell-based, HEK293, luciferase, cherry-pick, dose response (AID 588343); assay type: functional; conditions: Homo sapiens
[24] = target: Lysosomal acid glucosylceramidase (Homo sapiens, UniProt P04062); test: Dose response cell-based high throughput screening assay to identify enhancers of beta-glucosidase activity. [Related pubchem assays: 784 ]; assay type: functional
[25] = viability loss in HEK293 cells – cell-based, plate reader, cherry-picked samples, cytotoxicity control, dose response (AID 743446); assay type: functional

For `COc1ccc(Cl)cc1NC(=O)c1ocnc1C`, which IC50 (Estrogen receptor beta [1]) is on record?
The IC50 was > 109 µM (not active).

And the IC50 (Estrogen receptor beta [2])?
Its IC50 is 8.77 µM (active).

And the IC50 (Estrogen receptor)?
Its IC50 is 24.9 µM (active).

With `O=C(NCc1ccccc1)NC1(C(=O)N2CCN(c3ccccc3)CC2)CCCCC1` as the compound, how does the EC50 [3] read?
Its EC50 is > 100 µM (not active).

Which IC50 [4] does the source give for `CCOc1ccc(N2C(=O)c3ccc(C(=O)OCC(=O)N(CC)C4CCS(=O)(=O)C4)cc3C2=O)cc1` (centres undefined) here?
Its IC50 is > 100 µM (active).

Which IC50 (H9c2) does the source give for `Cc1ccc2c(C)nc(Nc3nc(O)cc(CSc4nc5ccccc5[nH]4)n3)nc2c1` here?
Its IC50 is > 79 µM (inactive).

What about the EC50 [3] of the same compound?
The EC50 was 82.2 µM (not active).

What about the AC50 (INS1) of the same compound?
Its AC50 is 61.7 µM (active).

What about the AC50 (Cytochrome P450 2C9) of the same compound?
Its AC50 is 0.1 µM (inconclusive).

Which EC50 [5] does the source give for `Cc1ccc(NC(S)=NNC(=O)c2nn(C)c(C)c2Cl)cc1` here?
Its EC50 is 6.19 µM (active).

And the EC50 (H4)?
Its EC50 is 10.9 µM (active).

And the EC50 [6]?
Its EC50 is 12 µM (active).

What about the IC50 [7] of the same compound?
Its IC50 is > 100 µM (inactive).

What about the IC50 [8] of the same compound?
Its IC50 is > 100 µM (inactive).

What about the IC50 [9] of the same compound?
The IC50 was > 100 µM (inactive).

What about the IC50 [10] of the same compound?
Its IC50 is > 122 µM (inactive).

With `CN1/C(=C\C=C\C2=[N+](C)c3ccc4ccccc4c3C2(C)C)C(C)(C)c2ccccc21.[O-][Cl+3]([O-])([O-])[O-]` as the compound, how does the EC50 [11] read?
The EC50 was 7.77 µM (active).

What about the EC50 [12] of the same compound?
The EC50 was 8.19 µM (active).

What about the EC50 (HT-1080) of the same compound?
The EC50 was > 50 µM (not active).

And the EC50 [13]?
The EC50 was 13.4 µM (inactive).

And the EC50 [14]?
Its EC50 is > 79.4 µM (not active).

What about the IC50 [15] of the same compound?
Its IC50 is 0.761 µM (active).

Which CC50 (HeLa) does the source give for `O=C1NC(=O)C2(COC3(CCCC3)OC2)S1` here?
Its CC50 is > 99 µM (not active).

For `COc1ccc(CNCc2cccc(Cl)c2)cc1`, which AC50 [16] is on record?
Its AC50 is 6.75 µM (active).

What does the source list for `CN(C)c1ccc(-c2nc3ccccc3n2C)cc1`?
AC50 [17]: 4.64 µM (active); EC50 [18]: 12.7 µM (active); AC50 [19]: 38.2 µM (active); AC50 [20]: 6.13 µM (active); EC50 [21]: 7.88 µM (active); AC50 [22]: 4.7 µM (active); AC50 [23]: > 52 µM (inactive); AC50 (HEK293): 2.11 µM (active); EC50 [24]: > 50 µM (not active); AC50 [25]: 32.2 µM (active)

For `O=C1CC(=O)N(c2ccc3c(c2)OCO3)C(=O)N1`, which EC50 [24] is on record?
The EC50 was > 50 µM (not active).

With `COc1ccc(OC)c(C(=S)NCc2ccc(F)c(C(F)(F)F)c2)c1` as the compound, how does the IC50 [7] read?
Its IC50 is 60.8 µM (active).

What about the IC50 [8] of the same compound?
Its IC50 is 15.5 µM (active).

For `N#CCN(N=Nc1ccccc1)c1ccccc1`, which AC50 [16] is on record?
Its AC50 is 9.41 µM (active).

Which IC50 [4] does the source give for `COc1ccc(/N=C/C2=C(O)OCC2)cc1` here?
Its IC50 is > 100 µM (active).
